How the values were obtained:
Type in all cases: functional
Mus musculus [1] = experiment: Narcotic antagonist activity in sc dosed mouse assessed as inhibition of oxymorphone-induced straub tail response administered 10 mins post oxymorphone-challenge
Rattus norvegicus [2] = experiment: Narcotic antagonist activity in sc dosed rat assessed as reversal of morphine-induced analgesia by tail-flick test
Mus musculus [3] = experiment: Analgesic activity in sc dosed mouse assessed as reduction in phenylquinone-induced writhing administered 15 mins prior to phenylquinone-challenge measured up to 10 mins
Rattus norvegicus [4] = experiment: Analgesic activity in sc dosed rat assessed as reduction in phenylquinone-induced writhing administered 15 mins prior to phenylquinone-challenge measured up to 10 mins
Mus musculus [5] = experiment: Analgesic activity in mouse assessed as reduction in phenylquinone-induced writhing at 10 mg/kg, sc administered 15 mins prior to phenylquinone-challenge measured up to 10 mins relative to control; parameters: scale not given: the % may be the effect or the level left; settings: route subcutaneous
Mus musculus [6] = experiment: Analgesic activity in mouse assessed as reduction in phenylquinone-induced writhing at 20 mg/kg, sc administered 15 mins prior to phenylquinone-challenge measured up to 10 mins relative to control; parameters: scale not given: the % may be the effect or the level left; settings: route subcutaneous
Mus musculus [7] = experiment: Analgesic activity in po dosed mouse assessed as increase in response time by hot plate test relative to control
Mus musculus [8] = experiment: Analgesic activity in po dosed mouse by hot plate test
Rattus norvegicus [9] = experiment: Narcotic antagonist activity in sc dosed rat assessed as reversal of oxymorphone-induced loss of righting reflex
Mus musculus [10] = experiment: Analgesic activity in mouse assessed as reduction in phenylquinone-induced writhing at 1.25 mg/kg, sc administered 15 mins prior to phenylquinone-challenge measured up to 10 mins relative to control; parameters: scale not given: the % may be the effect or the level left; settings: route subcutaneous
Mus musculus [11] = experiment: Analgesic activity in mouse assessed as reduction in phenylquinone-induced writhing at 2.5 mg/kg, sc administered 15 mins prior to phenylquinone-challenge measured up to 10 mins relative to control; parameters: scale not given: the % may be the effect or the level left; settings: route subcutaneous
Mus musculus [12] = experiment: Analgesic activity in mouse assessed as reduction in phenylquinone-induced writhing at 40 mg/kg, sc administered 15 mins prior to phenylquinone-challenge measured up to 10 mins relative to control; parameters: scale not given: the % may be the effect or the level left; settings: route subcutaneous
Mus musculus [13] = experiment: Narcotic antagonist activity in mouse assessed as inhibition of oxymorphone-induced straub tail response at 5 mg/kg, sc administered 10 mins post oxymorphone-challenge relative to control; settings: route subcutaneous
Mus musculus [14] = experiment: Narcotic antagonist activity in mouse assessed as inhibition of oxymorphone-induced straub tail response at 2.5 mg/kg, sc administered 10 mins post oxymorphone-challenge relative to control; settings: route subcutaneous
[15] = Mus musculus, sc, 10 min, read-out: ED50
[16] = Mus musculus, sc, read-out: ED50

`CCC[C@]12CCN(CC3CCC3)[C@H](Cc3ccc(O)cc31)[C@@]2(C)O.Cl` was tested, and the ED50 (Mus musculus [1]; [15]) was 1.17 mg/kg, the ED50 (Rattus norvegicus [2]) was 0.084 mg/kg and the ED50 (Mus musculus [3]; [16]) was 0.18 mg/kg.

For `C=CC[C@]12CCN(CC3CC3)[C@H](Cc3ccc(O)cc31)[C@H]2O`, the ED50 (Mus musculus [1]; [15]) was 0.5 mg/kg.

In the case of `CCC[C@]12CCN(CC3CC3)[C@H](Cc3ccc(O)cc31)[C@H]2O`, the ED50 (Mus musculus [1]; [15]) is reported as 0.62 mg/kg and the ED50 (Mus musculus [3]; [16]) is reported as 0.07 mg/kg.

Work on `C=CC[C@]12CCN(CC3CC3)[C@H](Cc3ccc(O)cc31)[C@@]2(C)O.O=C(O)C(O)C(O)C(=O)O` (stereo in doubt; (-)-23a) yielded an ED50 (Mus musculus [1]) of 0.08 mg/kg, an ED50 (Rattus norvegicus [2]) of 0.006 mg/kg and an ED50 (Rattus norvegicus [4]) of 8 mg/kg. It also gave an ED50 (Mus musculus [3]; [16]) of 44 mg/kg.

`C=CC[C@]12CCN(CC3CC3)[C@H](Cc3ccc(O)cc31)[C@@]2(C)O` gave an ED50 (Mus musculus [3]; [16]) of 45 mg/kg.

In the case of `CCC[C@]12CCN(CC3CCC3)[C@H](Cc3ccc(O)cc31)[C@H]2O`, the ED50 (Mus musculus [1]; [15]) is reported as 2.5 mg/kg and the ED50 (Mus musculus [3]; [16]) is reported as 0.24 mg/kg.

With `CC1C[C@]23CCN(C)[C@H](Cc4ccc(O)cc42)[C@@]3(C)O1` (some centres not stated) the ED50 (Mus musculus [1]; [15]) was greater than 40 mg/kg, the Activity (Mus musculus [5]) was 5% and the ED50 (Mus musculus [3]; [16]) was 18 mg/kg. The Activity (Mus musculus [6]) was 65%.

In the case of `CC1C[C@]23CCN(C)[C@H](Cc4ccccc42)[C@@]3(C)O1.Cl` (some centres not stated), the ED50 (Mus musculus [1]; [15]) is reported as greater than 40 mg/kg, the “%max” value (Mus musculus [7]) is reported as 16% and the ED50 (Mus musculus [8]) is reported as 16 mg/kg.

Compound `C=CC[C@]12CCN(CC3CCC3)[C@H](Cc3ccc(O)cc31)[C@@]2(C)O.O=C(O)C(O)C(O)C(=O)O` (stereo in doubt; (+)-23b) has an ED50 (Mus musculus [1]) greater than 40 mg/kg and an ED50 (Mus musculus [3]) greater than 40 mg/kg.

Work on `C=CC[C@]12CCN(CC3CCC3)[C@H](Cc3ccc(O)cc31)[C@@]2(C)O.O=C(O)C(O)C(O)C(=O)O` (stereo in doubt; (-)-23b) yielded an ED50 (Mus musculus [1]) of 0.43 mg/kg, an ED50 (Rattus norvegicus [2]) of 0.08 mg/kg and an ED50 (Rattus norvegicus [9]) of 0.05 mg/kg. The ED50 (Rattus norvegicus [4]) was 0.01 mg/kg and the ED50 (Mus musculus [3]) was 0.06 mg/kg.

`C=CC[C@]12CCN(CC)[C@H](Cc3ccc(O)cc31)[C@@]2(C)O.O=C(O)C(=O)O` gave an ED50 (Mus musculus [1]; [15]) greater than 40 mg/kg and an ED50 (Mus musculus [3]; [16]) of 2 mg/kg.

`CCC[C@]12CCN(CC)[C@H](Cc3ccc(O)cc31)[C@@]2(C)O` showed an ED50 (Mus musculus [1]; [15]) greater than 40 mg/kg and an ED50 (Mus musculus [3]; [16]) of 2.1 mg/kg.

For `CCC[C@]12CCN(CC3CC3)[C@H](Cc3ccc(O)cc31)[C@@]2(C)O`, the ED50 (Mus musculus [1]; [15]) was 0.074 mg/kg, the ED50 (Rattus norvegicus [2]) was 0.008 mg/kg and the ED50 (Rattus norvegicus [9]) was 0.013 mg/kg. For the same compound, the ED50 (Rattus norvegicus [4]) was 30 mg/kg and the ED50 (Mus musculus [3]; [16]) was 44 mg/kg.

For `CC1C[C@]23CCN(C)[C@H](Cc4ccc(O)cc42)[C@H]3O1` (some centres not stated), the ED50 (Mus musculus [1]; [15]) was greater than 40 mg/kg, the Activity (Mus musculus [5]) was 0% and the ED50 (Mus musculus [3]; [16]) was 19 mg/kg. It also gave an Activity (Mus musculus [6]) of 63%.

With `C=CC[C@]12CCN(C)[C@H](Cc3ccc(O)cc31)[C@H]2O` the ED50 (Mus musculus [1]; [15]) was greater than 40 mg/kg, the Activity (Mus musculus [10]) was 1.25% and the ED50 (Mus musculus [3]; [16]) was 1.9 mg/kg. For the same compound, the Activity (Mus musculus [11]) was 78%.

Work on `CC1C[C@]23CCN(C4CC4)[C@H](Cc4ccc(O)cc42)[C@@]3(C)O1` (some centres not stated) yielded an ED50 (Mus musculus [1]; [15]) of 0.63 mg/kg and an ED50 (Mus musculus [3]; [16]) greater than 40 mg/kg.

Compound `C=CC[C@]12CCN(Cc3ccco3)[C@H](Cc3ccc(O)cc31)[C@@]2(C)O.O=C(O)C(=O)O` has an ED50 (Mus musculus [1]; [15]) of 1.3 mg/kg, an Activity (Mus musculus [12]) of 66% and an ED50 (Mus musculus [3]; [16]) of 36 mg/kg. The Activity (Mus musculus [6]) was 0%.

In the case of `C=CC[C@]12CCN(CC3CC3)[C@H](Cc3ccc(O)cc31)[C@@]2(C)O.O=C(O)C(O)C(O)C(=O)O` (stereo in doubt; (+)-23a), the ED50 (Mus musculus [1]) is reported as greater than 40 mg/kg and the ED50 (Mus musculus [3]) is reported as greater than 40 mg/kg.

For `CC1C[C@]23CCN(C)[C@H](Cc4ccccc42)[C@H]3O1` (some centres not stated), the ED50 (Mus musculus [1]; [15]) was greater than 40 mg/kg, the “%max” value (Mus musculus [7]) was 16% and the ED50 (Mus musculus [8]) was 30 mg/kg.

For `CN(C)CC1C[C@]23CCN(C)[C@H](Cc4ccccc42)[C@@]3(C)O1.Cl` (some centres not stated), the ED50 (Mus musculus [1]; [15]) was greater than 40 mg/kg and the ED50 (Mus musculus [8]) was greater than 40 mg/kg.

In the case of `CC1C[C@]23CCN(C4CCC4)[C@H](Cc4ccc(O)cc42)[C@@]3(C)O1` (some centres not stated), the ED50 (Mus musculus [1]; [15]) is reported as 3 mg/kg, the ED50 (Mus musculus [13]) is reported as 100 mg/kg and the Activity (Mus musculus [12]) is reported as 50%. It also gave an ED50 (Mus musculus [3]; [16]) of 40 mg/kg, an Activity (Mus musculus [6]) of 33% and an ED50 (Mus musculus [14]) of 33 mg/kg.

`C=CC[C@]12CCN(CC3CCC3)[C@H](Cc3ccc(O)cc31)[C@H]2O` showed an ED50 (Mus musculus [1]; [15]) of 1.8 mg/kg and an ED50 (Mus musculus [3]; [16]) of 0.3 mg/kg.

`Br.CN1CC[C@]23CC(CBr)O[C@]2(C)[C@H]1Cc1ccccc13` (some centres not stated) was tested, and the ED50 (Mus musculus [1]; [15]) was greater than 40 mg/kg, the “%max” value (Mus musculus [7]) was 32% and the ED50 (Mus musculus [8]) was 64 mg/kg.

For `Oc1ccc2c(c1)[C@@]13CCCC[C@@]1(O)[C@@H](C2)N(CC1CCC1)CC3` [BUTORPHANOL], the ED50 (Mus musculus [1]; [15]) was 0.98 mg/kg, the ED50 (Rattus norvegicus [2]) was 0.43 mg/kg and the ED50 (Rattus norvegicus [9]) was 0.27 mg/kg. It also gave an ED50 (Rattus norvegicus [4]) of 0.04 mg/kg and an ED50 (Mus musculus [3]; [16]) of 0.05 mg/kg.

`CC1C[C@]23CCN(C4CC4)[C@H](Cc4ccc(O)cc42)[C@H]3O1` (some centres not stated) was tested, and the ED50 (Mus musculus [1]; [15]) was 8 mg/kg, the Activity (Mus musculus [12]) was 67% and the ED50 (Mus musculus [3]; [16]) was 30 mg/kg. The Activity (Mus musculus [6]) was 23%.

`Oc1ccc2c(c1)[C@@]13CCCC[C@@]1(O)[C@@H](C2)N(CC1CC1)CC3` [OXILORPHAN] gave an ED50 (Mus musculus [1]; [15]) of 0.19 mg/kg, an ED50 (Rattus norvegicus [2]) of 0.012 mg/kg and an ED50 (Rattus norvegicus [9]) of 0.03 mg/kg. For the same compound, the ED50 (Rattus norvegicus [4]) was 8 mg/kg and the ED50 (Mus musculus [3]; [16]) was 13 mg/kg.
